In PMC8003278, “Structure-Based Virtual Screening and De Novo Design of PIM1 Inhibitors with Anticancer Activity from Natural Products” (Pharmaceuticals, 2021):
Each block holds one molecule with its values, some of them ahead of it.

What was measured:
PIM1 kinase = biological target: T1, PIM1 kinase (Homo sapiens, UniProt P11309); assay: radiometric ([γ-33P]-ATP) kinase assay, PIM1 enzyme inhibition (Reaction Biology Corp.); type: biochemical
T1 construct: purchased Reaction Biology Corp. (Malvern, PA, USA), contract assay service
Source text: Among a total of 42,613 natural products in the chemical database, 31,874 molecules that satisfied the physicochemical property criteria for a potential drug candidate were screened through docking simulations in the ATP-binding site of PIM1 kinase, as illustrated in Figure 1. Using the modified binding free energy function involving an accurate molecular dehydration term, 100 top-scoring compounds were selected as the virtual hits, all of which were commercially available from a compound vendor (InterBioScreen Ltd., https://www.ibscreen.com, accessed on 15 October 2019). All these putative inhibitors were tested for the presence of the inhibitory activity against PIM1 kinase with in vitro radiometric ([γ-^33P]-ATP) kinase assays (Reaction Biology Corp., Malvern, PA, USA).
The inhibitory activities of all compounds with respect to PIM1 were measured by Reaction Biology Corp. (Malvern, PA, USA) using radiometric kinase assays ([γ-^33P]-ATP). Briefly, the enzymatic reaction mixtures contained an artificial substrate peptide, poly-Glu-Tyr (4:1), in freshly prepared base reaction buffer (20 mM hydroxyethyl piperazine ethane sulfonic acid (HEPES) of pH 7.5, 10 mM MgCl2, 1 mM ethylene glycol tetraacetic acid (EGTA), 0.02% Brij-35, 0.02 mg/mL bovine serum albumin (BSA), 0.1 mM Na3VO4, 2 mM dithiothreitol (DTT), and 1% DMSO). PIM1 kinase was delivered into the substrate solution and gently mixed. Each inhibitor in 100% DMSO in a serial dilution was then delivered to the reaction mixture using the acoustic dispensing system (Echo550; nanoliter range). To initiate the enzymatic reaction, ^33P-ATP with a specific activity of 10 μCi/μL was added into the reaction mixture, which was further incubated for 2 h at room temperature. Radioactivity was then monitored by the filter-binding method after the reactions were spotted onto P81 ion exchange paper, and the filters were washed extensively in 0.75% phosphoric acid. Kinase activity data were expressed as the percent remaining kinase activity in test samples compared to vehicle (dimethyl sulfoxide) reactions. IC50 values and curve fits were calculated with Prism Software (GraphPad Software) at 10 different concentrations in duplicate.

[1] = system: T47D human breast cancer cell lines; assay: MTT cell proliferation inhibition assay in T47D cells; type: cell-based; conditions: antiproliferative activity in T47D cell lines, mean ± standard deviation of the two experiments
Description: To assess the anticancer activities of these new PIM1 inhibitors, we carried out cell-based assays for 5, 8, 14, 15, and 16 using T47D human cancer cell lines, which represented breast cancer caused by PIM1 [48]. The natural product wortmannin served as a positive control in this cellular study. Cell viabilities were measured at varying inhibitor concentrations with a 3-(4,5-dimethylthiazol-2-yl)-2,5-diphenyltetrazolium bromide (MTT) assay. […]. However, it should be noted that the inhibitory activities of 14–16 decrease from the nanomolar level in enzyme inhibition assays (Table 2) to the micromolar level in cell proliferation assays. The poor cell permeability can be invoked to explain the reduced biochemical potency in cell-based assays. In order for the new PIM1 inhibitors to become a good lead compound for the development of anticancer medicines, improving cellular permeability using further structural modifications is required.
The T47D human breast cancer cell lines were purchased from Korean Cell Line Bank (KCLB, Seoul, Korea). T47D cells were then cultured in Roswell Park Memorial Institute 1640 (RPMI-1640) medium with 10% fetal bovine serum (FBS) and 1% penicillin/streptomycin, and maintained at 37 °C in a CO2 incubator with a controlled humidified atmosphere comprising 95% air and 5% CO2. All the cell culture reagents were purchased from Thermo Fisher Scientific.
Cell viability was measured with 3-(4,5-dimethylthiazol-2-yl)-2,5-diphenyltetrazolium bromide (MTT) assay using the natural product wortmannin as a positive control. At first, T47D cells were plated at a density of 3–5 × 10^3 cells/well in 96-well plates for 24 h and then treated with either DMSO as a control or with varying concentrations of the PIM1 inhibitors (5, 8, 14, 15, and 16). The final concentration of DMSO in the medium was <0.1% (v/v). After the incubation of cells for 48 h, 20 μL of MTT solution (5 mg/mL) was added to each well for 4 h at 37 °C. The formazan crystals formed during the mixing were dissolved in DMSO (100 μL/well) by shaking for 5 min. Duplicate wells were used for each analysis although triplicate measurements would be more reliable. After 72 h, the absorbance of each solution was measured with a microplate reader at 540 nm to calculate the antiproliferative activity of the PIM1 inhibitors. Finally, the IC50 values were measured from the dose–response curves.

[2] = PIM1, natural-product inhibitors, mean ± standard deviation of the two experiments
[3] = PIM1 kinase, derivatives of 2, mean ± standard deviation of the two experiments

T1 sequence (P11309 whole entry): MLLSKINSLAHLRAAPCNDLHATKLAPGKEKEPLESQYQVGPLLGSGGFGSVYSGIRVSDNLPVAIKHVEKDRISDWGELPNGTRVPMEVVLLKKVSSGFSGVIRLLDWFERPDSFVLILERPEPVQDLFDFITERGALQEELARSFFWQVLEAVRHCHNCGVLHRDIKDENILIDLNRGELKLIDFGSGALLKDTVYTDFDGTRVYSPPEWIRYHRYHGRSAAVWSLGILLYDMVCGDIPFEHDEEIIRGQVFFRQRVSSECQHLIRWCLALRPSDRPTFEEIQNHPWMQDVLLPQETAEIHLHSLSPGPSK

SMILES: COc1c(O)c(O)c2oc(-c3ccccc3)cc(=O)c2c1OC [Compound 1]
IC50 (PIM1 kinase; [2]): 580 ± 200 nM

SMILES: O=c1c(-c2ccc(OC3OC(CO)C(O)C(O)C3O)cc2)coc2cc(O)cc(O)c12 (stereo not shown) [Compound 4]
IC50 (PIM1 kinase; [2]): 20200 ± 2000 nM

SMILES: COc1cccc(/C=C2\Oc3cc(O)ccc3C2=O)c1 [Compound 5, (Z)-6-Hydroxy-2-(3-methoxybenzylidene)benzofuran-3(2H)-one]
IC50 [1]: 15100 ± 1000 nM
IC50 (PIM1 kinase; [3]): 260 ± 50 nM

SMILES: COc1cc(/C=C2\Oc3cc(O)ccc3C2=O)ccc1Cl [Compound 8, (Z)-2-(4-Chloro-3-methoxybenzylidene)-6-hydroxybenzofuran-3(2H)-one]
IC50 [1]: 11200 ± 2000 nM
IC50 (PIM1 kinase; [3]): 200 ± 30 nM

SMILES: COc1cc(/C=C2\Oc3cc(O)cc(O)c3C2=O)ccc1Cl [Compound 9, (Z)-2-(4-Chloro-3-methoxybenzylidene)-4,6-dihydroxybenzofuran-3(2H)-one]
IC50 (PIM1 kinase; [3]): 150 ± 10 nM

SMILES: COc1ccc(/C=C2\Oc3cc(O)ccc3C2=O)cn1 [Compound 11, (Z)-6-Hydroxy-2-((6-methoxypyridin-3-yl)methylene)benzofuran-3(2H)-one]
decrease of inhibitory activity by a factor (PIM1 kinase; PIM1, relative to 5 (phenyl ring replaced with pyridine)): 20
IC50 (PIM1 kinase; [3]): 5230 ± 400 nM

SMILES: COc1cc(O)c2c(c1)O/C(=C\c1cc(-c3ccncc3)[nH]n1)C2=O [Compound 14]
IC50 [1]: 5900 ± 1000 nM
IC50 (PIM1 kinase; [3]): 18 ± 2 nM

SMILES: COc1cc(O)c2c(c1)O/C(=C\c1c[nH]c3ncc(Cl)cc13)C2=O [Compound 15, (Z)-2-((5-Chloro-1H-pyrrolo[2,3-b]pyridin-3-yl)methylene)-4-hydroxy-6-methoxybenzofuran-3(2H)-one]
IC50 [1]: 3200 ± 600 nM
IC50 (PIM1 kinase; [3]): 8.8 ± 2 nM

SMILES: O=C1/C(=C/c2c[nH]c3nc(Cl)ncc23)Oc2cc(O)cc(O)c21 [Compound 16, (Z)-2-((2-Chloro-7H-pyrrolo[2,3-d]pyrimidin-5-yl)methylene)-4,6-dihydroxybenzofuran-3(2H)-one]
IC50 [1]: 4500 ± 800 nM
IC50 (PIM1 kinase; PIM1): 7 nM
IC50 (PIM1 kinase; [3]): 6.7 ± 3 nM

SMILES: COC[C@H]1OC(=O)c2coc3c2[C@@]1(C)C1=C(C3=O)[C@@H]2CCC(=O)[C@@]2(C)C[C@H]1OC(C)=O [wortmannin, reference compound]
IC50 [1]: 3400 ± 200 nM

The next lines start with the values.

IC50 (PIM1 kinase; [2]): 1200 ± 100 nM
IC50 (PIM1 kinase; [3]): 1190 ± 70 nM
SMILES: COc1ccc(/C=C2\Oc3cc(O)ccc3C2=O)cc1 [Compound 2]

IC50 (PIM1 kinase; [2]): 4000 ± 600 nM
SMILES: O=C1c2c(O)cc(O)cc2O[C@H](c2ccc(O)c(O)c2)[C@H]1O [Compound 3]

IC50 (PIM1 kinase; [3]): 310 ± 20 nM
SMILES: COc1cccc(/C=C2\Oc3cc(O)cc(O)c3C2=O)c1 [Compound 6, (Z)-4,6-Dihydroxy-2-(3-methoxybenzylidene)benzofuran-3(2H)-one]

IC50 (PIM1 kinase; [3]): 1450 ± 100 nM
SMILES: O=C1/C(=C/c2cccc(Cl)c2)Oc2cc(O)cc(O)c21 [Compound 7, (Z)-2-(3-Chlorobenzylidene)-4,6-dihydroxybenzofuran-3(2H)-one]

IC50 (PIM1 kinase; [3]): 680 ± 80 nM
SMILES: O=C1/C(=C/c2ccc(Cl)c(Cl)c2)Oc2cc(O)cc(O)c21 [Compound 10, (Z)-2-(3,4-Dichlorobenzylidene)-4,6-dihydroxybenzofuran-3(2H)-one]

IC50 (PIM1 kinase; [3]): 5860 ± 1000 nM
SMILES: O=C1/C(=C/c2ccc[nH]c2=O)Oc2cc(O)cc(O)c21 [Compound 12, (Z)-3-((4,6-Dihydroxy-3-oxobenzofuran-2(3H)-ylidene)methyl)pyridin-2(1H)-one]

IC50 (PIM1 kinase; [3]): 1730 ± 300 nM
SMILES: O=C1/C(=C/c2cc3ccccc3[nH]c2=O)Oc2cc(O)cc(O)c21 [Compound 13, (Z)-3-((4,6-Dihydroxy-3-oxobenzofuran-2(3H)-ylidene)methyl)quinolin-2(1H)-one]
